Data on six compounds can be found in patent US20240245741A1, “EXTRACTION METHOD USING AN AQUEOUS ALKANEDIOL” (Minasolve SAS, priority 2021, published 2024).

Converted amounts (≈) assume the structure as drawn. Like-named read-outs stand apart in the source and are kept apart here.

A short description of one series: physchem. The conditions noted are these: for solubility at 5 min: thermodynamic from solid. As for the experimental part:
All experiments were performed at ambient temperature. Each model substance was weighted into test tubes, and a precise volume of each solvent mixture was added in order to obtain saturated solutions. The test tubes were vortexed for 5 min and subsequently centrifuged (12000 rpm during 15 min at 25° C.). An aliquot of the supernatant was diluted for UV-spectrophotometric assay. Absorbance measurements were made at wavelengths adapted to each studied molecule. High Performance Liquid Chromatography (HPLC-DAD) was used for Rosmarinic Acid (RA) quantification. Determination of Radical Scavenging Capacity was conducted through DPPH assay.
Each experiment was performed in triplicate.
The solubilisation power of aqueous Pentylene Glycol solutions (from 0 to 100% of PG) for five different model substances was compared to that of 80 wt. % aqueous ethanol.
Various mixtures of bio-based PG and bio-based caprylyl glycol (CG) were explored for dissolving hesperidin. The proportion of bio-based caprylyl glycol ranged from 0 to 30%.
Regarding solubility in the ternary mixture of PG/CG/water, six different mixtures out of the monophasic region of the ternary system were prepared (see FIG. 2): Three water-rich solvent mixtures, one with a high percentage of PG, one with a high percentage of CG and one with a similar percentage of all three components. All the alkanediols used in this study were bio-based or “green”.

Series [1] in a line: Ternary phase diagrams PG/water/lipophilic ingredient (monophasic region). The conditions noted are these: with 85% PG, 10% water.
Method: The ternary systems studied consisted of water and an organic solvent that is immiscible with water. A third liquid was added that is soluble in each of the other two components. This third liquid acts as a hydrotrope, which increases the solubility of the two immiscible liquids in each other. The white areas indicate a single-phase mixture (clear solution), while the grey areas show a biphasic mixture.
Binary mixtures of water and PG (0:100, 10:90, 20:80, 30:70, 40:60, 50:50, 60:40, 70:30, 80:20, 90:10, 100:0) were prepared in test tubes. Then the selected monoterpenes (carvacrol, carvone, geraniol, limonene, α-pinene, α-terpinene) were added dropwise (10 μL) to the binary mixtures and mixed. The addition of the monoterpenes was continued until the clear liquid changed to a turbid liquid. The test tubes were then shaken for 2 minutes and allowed to settle for 24 hours to check whether or not the biphasic liquid changed to a monophasic liquid. In the case of thymol, very small amounts of the solid sample were added to the binary mixtures of water/PG until a turbid liquid was visible to the naked eye.
Essential oils (thyme, citronella, eucalyptus and lavender) were added dropwise to the binary mixtures of water/PG until a turbid liquid was observed. After the addition of each drop (10 μL) and mixing, the samples were rested for 2 minutes to see whether there is a phase separation or not. […]
Setting [2] is: 25 °C, organic solvent or mixture.
Where [3] appears, read: aqueous with cosolvent or surfactant or cyclodextrin.

`COc1ccc([C@@H]2CC(=O)c3c(O)cc(O[C@@H]4O[C@H](CO[C@@H]5O[C@@H](C)[C@H](O)[C@@H](O)[C@H]5O)[C@@H](O)[C@H](O)[C@H]4O)cc3O2)cc1O` [HE, Hesperidin]: the “Solubilisation power relative to 80% ethanol” value in “physchem” (5% CG in PG versus 80% ethanol) turned out to be 82.4%. For the same compound, the “Solubility compared to PG alone” value in the series “physchem” (5% CG in PG versus PG alone) came to 5 times. In addition, the Solubility in “physchem” ((PG:CG) solution, 1% CG) is 0.078 ± 0.005 g/litre of solvent; in the series “physchem” ((PG:CG) solution, 5% CG), 0.11 ± 0.006 g/litre of solvent; in the series “physchem” ((PG:CG) solution, 10% CG) it was 0.071 ± 0.003 g/litre of solvent; in “physchem” ((PG:CG) solution, 20% CG), 0.071 ± 0.007 g/litre of solvent; in “physchem” ((PG:CG) solution, 30% CG), 0.06 ± 0.01 g/litre of solvent; in “physchem” (solvent 10% PG in water, ambient temperature), 0.013 ± 0.003 g/litre of solvent. Further, the Solubility in “physchem” (solvent 30% PG in water, ambient temperature) is given as 0.177 ± 0.006 g/litre of solvent; in “physchem” (solvent 50% PG in water, ambient temperature) it was 0.218 ± 0.024 g/litre of solvent; in the series “physchem” (solvent 70% PG in water, ambient temperature), 0.19 ± 0.011 g/litre of solvent; in “physchem” (solvent 80% EtOH, ambient temperature) it was 0.13 ± 0.009 g/litre of solvent; in “physchem” (solvent 90% PG in water, ambient temperature), 0.118 ± 0.012 g/litre of solvent; in “physchem” (solvent 100% H2O, ambient temperature), 0.00 g/litre of solvent. For the same compound, the Solubility entry in the series “physchem” (solvent 100% H2O, ambient temperature, listed as He) was “completely insoluble”; in the series “physchem” (solvent 100% PG, ambient temperature), 0.0216 ± 0.002 g/litre of solvent; in “physchem” (solvent 100% PG, ambient temperature, listed as Hesperidin) it was 0.022 ± 0.002 g/litre of solvent. The “Concentration of natural substance in a saturated solution” value in the series “physchem” (ternary mixture No 1: 64.7% PG, 17.6% CG, 17.7% H2O) came out at 340 ± 30 µg/mL; in “physchem” (ternary mixture No 2: 37.5% PG, 31.2% CG, 31.3% H2O), 440 ± 30 µg/mL; in “physchem” (ternary mixture No 3: 31.2% PG, 12.5% CG, 56.3% H2O) it was 460 ± 10 µg/mL; in “physchem” (ternary mixture No 4: 32.1% PG, 55.1% CG, 12.8% H2O), 300 ± 30 µg/mL; in the series “physchem” (ternary mixture No 5: 25% PG, 12.5% CG, 62.5% H2O) it was 400 ± 30 µg/mL; in “physchem” (ternary mixture No 6: 16.65% PG, 8.9% CG, 74.45% H2O), 310 ± 10 µg/mL. Also, in “physchem” (ternary mixture No. 3 versus 80% ethanol), the “Concentration relative to 80% ethanol” value stood at 3.6 times.

With `C=C(C)[C@H]1CC=C(C)CC1` [limonene], the “Proportion in a self-stabilized ternary mixture” value in series [1] is 5%.

For the compound `CC1=C(/C=C/C(C)=C/C=C/C(C)=C/C=C/C=C(C)/C=C/C=C(C)/C=C/C2=C(C)CCCC2(C)C)C(C)(C)CCC1` [B-C, β-carotene], the Solubility entry in “physchem” was “completely insoluble”. Besides, in the series “physchem” (ternary point 4 versus hexane), the “Amount dissolved compared to hexane” value is reported as “three times more”.

For `O=C(/C=C/c1ccc(O)c(O)c1)O[C@H](Cc1ccc(O)c(O)c1)C(=O)O` [RA, Rosmarinic Acid], the “Solubilisation power relative to water” value in “physchem” is on record as 27.2 times. For the same compound, the “Solubilisation relative to water” value in the series “physchem” worked out at 26.8 times. The solubility (in general, the dissolved amount per volume that the medium holds) at 5 min stood at 12800 ± 1200 µg/mL (≈ 35.5 mM) in the series “physchem” (setting [2]); 6600 ± 2400 µg/mL (≈ 18.3 mM) in “physchem” (25 °C, water); 302000 ± 9400 µg/mL (≈ 839 mM) in “physchem” (setting [3]). Also, the “Solubility relative to solubility in 80% ethanol” value in the series “physchem” (5 min) turned out to be 92%.

Regarding `COc1cc(/C=C/C(=O)CC(=O)/C=C/c2ccc(O)c(OC)c2)ccc1O` [CU, Curcumin], the solubility at 5 min in “physchem” (25 °C, aqueous with cosolvent or surfactant or cyclodextrin) was 1900 ± 45 µg/mL (≈ 5.16 mM); in the series “physchem” (setting [2]) it was 5850 ± 310 µg/mL (≈ 15.9 mM); in the series “physchem” (25 °C, water), 0.5 µg/mL (≈ 0.00136 mM); in “physchem” (setting [3]), 3650 ± 220 µg/mL (≈ 9.91 mM); in the series “physchem” (organic solvent or mixture), 7900 µg/mL (≈ 21.4 mM). Further, the “Solubility compared to 80% ethanol” value in the series “physchem” (5 min) is 1.6 fold.

Take `O=C(O)c1cc(O)c(O)c(O)c1` [GA, Gallic acid]: the “Solubility in 70% PG relative to water (factor)” value in “physchem” was approximately 12.4 times. The solubility at 5 min in the series “physchem” (setting [2]) turned out to be 42000 ± 540 µg/mL (≈ 247 mM); in the series “physchem” (25 °C, water), 10500 ± 1100 µg/mL (≈ 61.7 mM); in the series “physchem” (setting [3]), 95100 ± 8120 µg/mL (≈ 559 mM). In “physchem” (5 min), the “Solubility in 100% PG compared to that of 70% PG” value worked out at 32.3%. In addition, the “Solubilization power relative to 80% ethanol” value in “physchem” (5 min) was found to be 58.75%.
